Laboratory results published in US10920265B2, “Compounds and methods for detection of enzymes that remove methyl succinyl groups from epsilon-amino lysine moieties” (Enzo Life Sciences, Inc., priority 2011, dated 2021).
*: point of attachment. AMC = Cc1cc(=O)oc2cc(N*)ccc12

How the values were obtained:
[1] = tested on: HeLa cell extracts; experiment: HeLa cell extract Ac-Lys(ε-succinyl)-AMC desuccinylation activity; assay type: biochemical, human; conditions: 50 μM Ac-Lys(Succ.)-AMC, +NAD^+ 500 μM; TSA 1 μM, suramin 200 μM
Method: (§1) Enzyme and extract catalog products obtained from ENZO Life Sciences included: HDAC1 (Cat. # BML-SE456), HDAC2 (Cat. # BML-SE500), HDAC3 (Cat. # BML-SE507), HDAC3/NCOR1 Complex (Cat. # BML-SE515), HDAC6 (Cat. # BML-SE508), HDAC8 (Cat. # BML-SE145), HDAC10 (Cat. # BML-SE559), HDAC11 (Cat. # BML-SE560), SIRT1 (Cat. # BML-SE239), SIRT2 (Cat. # BML-SE251), SIRT3 (Cat. # BML-SE270), SIRT5 (Cat. # BML-SE555), HeLa Nuclear Extract (Cat. # BML-KI140), Trypsin (“Fluor de Lys Developer”, 80 mg/ml bovine trypsin in 1 mM HCl, Cat. # BML-KI105 or “Fluor de Lys Developer II”, 80 mg/ml bovine trypsin in 1 mM HCl, Cat. # BML-KI176). […] Enzymes obtained from BPS Bioscience, San Diego, Calif. included: human recombinants SIRT4 (Cat. #50015), SIRT6 (Cat. #50017), SIRT7 (Cat. #50018). HeLa whole cell extract was obtained from HeLa S3 cells (American Type Culture Collection) grown in a medium of MEM/10% fetal bovine serum (FBS) as follows: 1) 9×10^6 cells were suspended by trypsinization, followed by a phosphate buffered saline (PBS) rinse and addition of MEM/10% FBS (1.5 mL) to eliminate trypsin before transfer to a 15 mL conical tube; 2) cells were sedimented by a low speed centrifugation, gently resuspended in PBS and sedimented again and supernatant removed; 3) lysis was induced by resuspension in 0.8 mL 50 mM Tris/HCl, pH 8.0 with the non-denaturing detergent NP-40 (0.5%), placement on ice and brief vortexing every 5 min. for 30 min.; 4) 100 μl of a concentrated salt solution in the same buffer was added in order to bring the final buffer composition to 50 mM Tris/C1, pH 8.0, 137 mM NaCl, 2.7 mM KCl, 1 mM MgCl2, 0.5% NP-40; 5) particulate matter was cleared by centrifugation and the cleared lysate supernatant transferred to a 1.5 mL Eppendorf tube and stored on ice until use in activity assays.
Assays were performed at 37° C., according to the manufacturer's instructions for the “SIRT1 Fluorometric Drug Discovery Kit” from Enzo Life Sciences (ELS) (Cat. # BML-AK555), with exceptions described as follows. […]

[2] = biological target: T1, SIRT5 (Homo sapiens, UniProt Q9NXA8); experiment: Inhibition of SIRT5 desuccinylation of Ac-Lys(Succ.)-AMC; assay type: biochemical; set-up: purchased Enzo Life Sciences BML-SE555; conditions: three parameter Hill-Slope model, bottom fixed at 0
T1 sequence (Q9NXA8 37-310): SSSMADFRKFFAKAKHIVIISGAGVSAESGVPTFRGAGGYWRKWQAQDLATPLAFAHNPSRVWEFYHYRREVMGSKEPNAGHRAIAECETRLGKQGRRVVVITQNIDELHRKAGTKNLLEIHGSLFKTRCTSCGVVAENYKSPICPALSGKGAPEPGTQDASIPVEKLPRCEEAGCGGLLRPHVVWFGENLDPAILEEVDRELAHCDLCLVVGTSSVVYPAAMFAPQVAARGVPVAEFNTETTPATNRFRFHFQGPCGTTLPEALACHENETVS
Excerpt: Signal development (trypsin treatment) and fluorescence readings were done as described, as were the conversion of fluorescence increases to rates in units of pmol/min/μg (FIG. 5). Data points represent the mean of three determinations and the error bars are the standard deviations from those means. The dose-response curve was derived from a least-squares fit to a three parameter Hill-Slope model (bottom fixed at 0 pmol/min/μg), y=top/(1+(x/IC50)^slope).
Data points represent the mean of three determinations and the error bars are the standard deviations from those means. The dose-response curve was derived from a least-squares fit to a three parameter Hill-Slope model (bottom fixed at 0 pmol/min/μg), y=top/(1+(x/IC50)^slope).
(§2) Assays were performed at 37° C., according to the manufacturer's instructions for the “SIRT1 Fluorometric Drug Discovery Kit” from Enzo Life Sciences (ELS) (Cat. # BML-AK555), with exceptions described as follows. Where indicated in figures and text, SIRT1 enzyme was replaced with another enzyme or extract and the “Fluor de Lys-SIRT1 Substrate” (Ac-Arg-His-Lys-Lys(Ac)-AMC; ELS Cat. # BML-KI-177) was replaced with another acetylated, succinylated or trifluoroacetylated substrate.

[3] = tested on: HDAC4; experiment: HDAC activity with fluorogenic lysyl substrates; assay type: biochemical, human; conditions: 50 μM substrate
Sequence of HDAC4 (P56524 626-1084 limits assumed): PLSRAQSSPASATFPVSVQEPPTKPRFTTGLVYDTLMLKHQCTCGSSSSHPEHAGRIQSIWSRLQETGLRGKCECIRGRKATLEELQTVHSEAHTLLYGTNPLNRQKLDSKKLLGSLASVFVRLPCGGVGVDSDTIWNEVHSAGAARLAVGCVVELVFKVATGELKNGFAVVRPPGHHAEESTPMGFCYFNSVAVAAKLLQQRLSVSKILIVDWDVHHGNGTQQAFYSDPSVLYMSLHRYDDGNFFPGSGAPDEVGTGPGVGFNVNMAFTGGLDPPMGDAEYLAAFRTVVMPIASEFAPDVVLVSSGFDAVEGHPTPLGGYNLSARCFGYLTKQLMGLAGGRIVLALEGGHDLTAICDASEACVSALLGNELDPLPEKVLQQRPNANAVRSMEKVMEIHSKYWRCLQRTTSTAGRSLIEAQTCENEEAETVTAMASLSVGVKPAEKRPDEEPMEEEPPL
Method: (§3) The Ac-Lys(Succ.)-AMC substrate was tested for activity with recombinant preparations of human HDACs 1-11, SIRTs 1-4, 6 and 7, a complex of HDAC3 with a fragment of the activating protein NCOR1 and with HeLa nuclear extract, a rich source of active HDACs in their native multiprotein complexes.
Enzyme and extract catalog products obtained from ENZO Life Sciences included: HDAC1 (Cat. # BML-SE456), HDAC2 (Cat. # BML-SE500), HDAC3 (Cat. # BML-SE507), HDAC3/NCOR1 Complex (Cat. # BML-SE515), HDAC6 (Cat. # BML-SE508), HDAC8 (Cat. # BML-SE145), HDAC10 (Cat. # BML-SE559), HDAC11 (Cat. # BML-SE560), SIRT1 (Cat. # BML-SE239), SIRT2 (Cat. # BML-SE251), SIRT3 (Cat. # BML-SE270), SIRT5 (Cat. # BML-SE555), HeLa Nuclear Extract (Cat. # BML-KI140), Trypsin (“Fluor de Lys Developer”, 80 mg/ml bovine trypsin in 1 mM HCl, Cat. # BML-KI105 or “Fluor de Lys Developer II”, 80 mg/ml bovine trypsin in 1 mM HCl, Cat. # BML-KI176). […] Enzymes obtained from BPS Bioscience, San Diego, Calif. included: human recombinants SIRT4 (Cat. #50015), SIRT6 (Cat. #50017), SIRT7 (Cat. #50018). […]

[4] = biological target: T2, HDAC7 (Homo sapiens, UniProt Q8WUI4); experiment: HDAC activity with fluorogenic lysyl substrates; assay type: biochemical; conditions: 50 μM substrate
T2 construct: made in house; host or cells: E. coli
T2 sequence (Q8WUI4 483-903): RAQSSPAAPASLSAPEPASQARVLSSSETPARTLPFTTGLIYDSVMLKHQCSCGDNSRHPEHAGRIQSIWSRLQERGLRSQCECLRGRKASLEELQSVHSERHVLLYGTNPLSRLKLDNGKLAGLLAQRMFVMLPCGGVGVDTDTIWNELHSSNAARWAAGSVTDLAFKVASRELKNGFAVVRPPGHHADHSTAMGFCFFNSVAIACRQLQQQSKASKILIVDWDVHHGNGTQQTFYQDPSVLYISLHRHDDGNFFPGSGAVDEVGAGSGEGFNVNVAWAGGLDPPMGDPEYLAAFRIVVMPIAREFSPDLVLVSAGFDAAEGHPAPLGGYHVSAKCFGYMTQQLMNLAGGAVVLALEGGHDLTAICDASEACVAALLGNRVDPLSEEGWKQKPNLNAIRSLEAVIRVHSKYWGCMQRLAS
Method: as §3, §1, §2

[5] = biological target: T3, HDAC5 (Homo sapiens, UniProt Q9UQL6); experiment: HDAC activity with fluorogenic lysyl substrates; assay type: biochemical; conditions: 50 μM substrate
T3 construct: made in house; host or cells: E. coli
T3 sequence (Q9UQL6 656-1122): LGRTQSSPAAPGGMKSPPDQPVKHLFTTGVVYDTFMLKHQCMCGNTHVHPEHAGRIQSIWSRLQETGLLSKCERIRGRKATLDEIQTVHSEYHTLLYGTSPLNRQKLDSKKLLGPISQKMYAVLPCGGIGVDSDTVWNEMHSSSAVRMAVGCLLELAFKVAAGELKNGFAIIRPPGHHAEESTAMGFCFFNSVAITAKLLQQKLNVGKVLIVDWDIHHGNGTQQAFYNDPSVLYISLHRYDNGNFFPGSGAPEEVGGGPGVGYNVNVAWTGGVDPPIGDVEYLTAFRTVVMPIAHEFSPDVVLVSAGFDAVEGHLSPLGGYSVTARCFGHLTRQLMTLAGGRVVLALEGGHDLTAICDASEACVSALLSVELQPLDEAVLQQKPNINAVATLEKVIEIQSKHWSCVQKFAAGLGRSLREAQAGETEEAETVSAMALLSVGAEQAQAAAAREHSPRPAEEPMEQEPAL
Method: as §3, §1, §2

[6] = biological target: T4, HDAC9 (Homo sapiens, UniProt Q9UKV0); experiment: HDAC activity with fluorogenic lysyl substrates; assay type: biochemical; conditions: 50 μM substrate
T4 construct: made in house; host or cells: E. coli
T4 sequence (Q9UKV0 644-1066 isoform Q9UKV0-5): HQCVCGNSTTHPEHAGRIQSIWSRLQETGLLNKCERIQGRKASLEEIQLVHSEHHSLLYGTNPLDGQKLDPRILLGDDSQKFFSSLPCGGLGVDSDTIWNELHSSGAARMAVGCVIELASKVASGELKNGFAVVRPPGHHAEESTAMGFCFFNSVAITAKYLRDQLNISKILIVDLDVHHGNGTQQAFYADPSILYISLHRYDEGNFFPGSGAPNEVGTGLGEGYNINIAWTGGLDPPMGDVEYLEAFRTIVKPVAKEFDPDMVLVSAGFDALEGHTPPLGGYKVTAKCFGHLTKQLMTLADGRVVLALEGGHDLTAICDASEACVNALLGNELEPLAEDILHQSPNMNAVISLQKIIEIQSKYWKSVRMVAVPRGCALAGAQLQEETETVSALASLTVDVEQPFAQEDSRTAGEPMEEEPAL
Method: as §3, §1, §2

[7] = biological target: T5, SIRT3 (Homo sapiens, UniProt Q9NTG7); experiment: Sirtuin activity with fluorogenic lysyl substrates; assay type: biochemical; conditions: 50 μM substrate, 500 μM NAD^+
T5 construct: purchased ENZO Life Sciences BML-SE270
T5 sequence (Q9NTG7 1-399): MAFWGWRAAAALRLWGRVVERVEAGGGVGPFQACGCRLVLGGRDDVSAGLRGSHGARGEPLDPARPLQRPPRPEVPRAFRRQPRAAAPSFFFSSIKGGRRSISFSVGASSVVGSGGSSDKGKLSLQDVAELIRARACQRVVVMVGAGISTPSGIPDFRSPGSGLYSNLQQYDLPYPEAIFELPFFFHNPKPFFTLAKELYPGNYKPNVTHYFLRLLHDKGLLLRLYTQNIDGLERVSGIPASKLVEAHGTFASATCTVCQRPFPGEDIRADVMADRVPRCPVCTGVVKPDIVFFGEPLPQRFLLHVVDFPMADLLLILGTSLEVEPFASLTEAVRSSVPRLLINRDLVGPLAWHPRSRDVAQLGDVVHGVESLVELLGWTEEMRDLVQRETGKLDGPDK
Method: as §3, §1, §2

[8] = biological target: T6, SIRT2 (Homo sapiens, UniProt Q8IXJ6); experiment: Sirtuin activity with fluorogenic lysyl substrates; assay type: biochemical; conditions: 50 μM substrate, 500 μM NAD^+
T6 sequence (Q8IXJ6 1-389): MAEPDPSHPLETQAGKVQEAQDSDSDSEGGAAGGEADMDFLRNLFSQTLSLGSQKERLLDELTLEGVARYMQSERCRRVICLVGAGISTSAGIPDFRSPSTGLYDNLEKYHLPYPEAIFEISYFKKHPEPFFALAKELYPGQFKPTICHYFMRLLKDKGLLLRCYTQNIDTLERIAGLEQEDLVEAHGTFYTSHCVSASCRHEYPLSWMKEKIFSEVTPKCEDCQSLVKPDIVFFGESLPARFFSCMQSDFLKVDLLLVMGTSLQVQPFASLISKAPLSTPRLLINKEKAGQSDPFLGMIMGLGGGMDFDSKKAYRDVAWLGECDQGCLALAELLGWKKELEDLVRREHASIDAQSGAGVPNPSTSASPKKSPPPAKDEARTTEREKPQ
Method: as §3, §1, §2

[9] = tested on: HeLa cells; experiment: Intact HeLa cell desuccinylation/deacetylation assay; assay type: cell-based, human; conditions: 200 μM Ac-Lys(Ac.)-AMC, four hours, TSA 1 μM
Method: HeLa cells were cultured to 95% confluence in the wells of ½-volume 96-well plates. […] After the indicated time, cells were lysed with detergent and trypsin added to release AMC from desuccinylated or deacetylated substrate and then fluorescence read (Ex.360 nm/Em. 460 nm). For “0 hr.” samples, substrate, inhibitors, lysis buffer and trypsin were added simultaneously. Bars represent the mean of three determinations and the error bars the Standard Deviation from that mean. Statistically significant differences between the fluorescences of “4 hr.” and “0 hr.” samples (Student's t-test) are indicated by asterisks as follows: *,p<0.02; **, p<0.002.
An assay employing Ac-Lys(Ac.)-AMC to measure the HDAC and sirtuin deacetylase activity of intact cultured cells has been described (Howitz, K. T. et al. Nature 425, 191-196 (2003); Product Manual of Enzo Life Sciences Cat. # BML-AK-503, “HDAC Fluorimetric Cellular Activity Assay Kit”, Appendix F). Ac-Lys(Ac)-AMC is added to the culture medium, enters the cells and is deacetylated by HDACs and sirtuins in their native intracellular context. Measurement of the amount of Ac-Lys-AMC produced by intracellular deacetylation is then accomplished by detergent lysis of the cells and release of the AMC fluorophore by trypsin. We therefore investigated whether Ac-Lys(Succ.)-AMC could be used to measure intracellular desuccinylation activity, in a similar fashion, with cultured HeLa cells. […] These latter, deacetylation results are consistent with previous observations made with this assay system (see Howitz, K. T. et al. Nature 425, 191-196 (2003) and Appendix F).
Assays (FIG. 10) were performed according to the manufacturer's instructions for the ““HDAC Fluorometric Cellular Activity Assay Kit” (ELS Cat. # BML-AK503), with exceptions described as follows. Where indicated the “Fluor de Lys Substrate” (Ac-Lys(Ac.)-AMC; ELS Cat. # BML-KI104) was replaced with Ac-Lys(Succ.)-AMC (1).

[10] = biological target: T6, SIRT2; conditions: varied Lysyl, cited from earlier work

Molecule: Cc1ccc(C(=O)Nc2ccc(S(=O)(=O)O)c3cc(S(=O)(=O)O)cc(S(=O)(=O)O)c23)cc1NC(=O)c1cccc(NC(=O)Nc2cccc(C(=O)Nc3cc(C(=O)Nc4ccc(S(=O)(=O)O)c5cc(S(=O)(=O)O)cc(S(=O)(=O)O)c45)ccc3C)c2)c1 [suramin]
- Inhibition of the total 2 hr. fluorescence increase [1]: ~50%
- slope (fitted parameter of dose-response curve) [2]: 2.37
- top (fitted parameter of dose-response curve) [2]: 127 pmol/min/µg

Molecule: Ac-Leu-Gly-Lys(TFAc)-AMC [Ac-LGK(TFAc)-AMC, reference compound]
- Activity (pmol/min/μg) [3]: Ac-LGK(TFAc)-AMC/1390 pmol/min/μg
- Activity (pmol/min/μg) [4]: Ac-LGK(TFAc)-AMC/1670 pmol/min/μg
- Activity (pmol/min/μg) [5]: Ac-LGK(TFAc)-AMC/9960 pmol/min/μg
- Activity (pmol/min/μg) [6]: Ac-LGK(TFAc)-AMC/3330 pmol/min/μg

Molecule: Ac-Gln-Pro-Lys-Lys(Ac)-AMC (Ac-QPKK(Ac)-{AMC}; SMILES CC(=O)NCCCC[C@H](NC(=O)[C@H](CCCCN)NC(=O)[C@@H]1CCCN1C(=O)[C@H](CCC(N)=O)NC(C)=O)C(=O)Nc1ccc2c(C)cc(=O)oc2c1) [Ac-QPKK(Ac)-AMC, reference compound]
- Activity (pmol/min/μg) [7]: Ac-QPKK(Ac)-AMC/10.8 pmol/min/μg
- Activity (pmol/min/μg) [8]: Ac-QPKK(Ac)-AMC/18.6 pmol/min/μg

Molecule: CC(/C=C/C(=O)NO)=C\[C@@H](C)C(=O)c1ccc(N(C)C)cc1 [trichostatin A]
- Fraction of deacetylation sensitive to inhibitor [9]: > 90%
- Inhibition of the total 2 hr. fluorescence increase [1]: ~50%

Molecule: Hist. H3 1-20, K9Ac: unlabeled peptide, histone H3 residues 1-20 acetylated on lysine-9
- Km ([10]; Borra et al., 2004, read-out: Km (Lysyl substrate)): 24 µM
- kcat ([10]; Borra et al., 2004): 0.24 s⁻¹
